Assay results reported in patent US20260306644A1, “ANTIBODY RECRUITING MOLECULES FOR THE TREATMENT OF CORONAVIRUS DISEASE-19” (priority 2023, published 2026).
Positions of bridges follow the written chain, without caps; N, C: chain ends. Non-standard residues stand in square brackets, D forms with d. No end group written: not given here. Tic = O=C(O)[C@@H]1Cc2ccccc2CN1; Aib = CC(C)(N)C(=O)O

molecular target: SARS-CoV-2 Spike protein (Severe acute respiratory syndrome coronavirus 2, UniProt P0DTC2); experiment: Ternary binding of SARS-CoV-2 Spike protein (293T cells expressing Spike-GFP, IgG-AF647, flow cytometry); format: cell-based; conditions: 293T cells expressing Spike-GFP; IgG-AF647 10 μg/ml; repeat values/batches listed separately; read-out: SARS-CoV-2 Ternary binding EC50
Description: 293T cells stably expressing SARS-CoV-2 Spike-GFP protein on their surface were incubated with a concentration range of compound for 30 minutes at 37° C.-5% CO2 in Roswell Park Memorial Institute Medium (RPMI)-5% low IgG serum with 10 μg/ml IgG-Alexa Fluor® 647 (AF647). The cells were washed twice using the same medium, resuspended in phosphate-buffered saline (PBS)-1% bovine serum albumin (BSA), and acquired on Attune™ NxT Flow Cytometer. In some embodiments, mean fluorescence intensity of AF647 as well as […] AF647 positive in GFP positive gate are reported as readouts in this assay.

Molecule	EC50
CC[C@H](C)[C@H](NC(=O)[C@H](Cc1c[nH]c2ccccc12)NC(=O)[C@H](CCC(=O)O)NC(=O)[C@H](CCCCN)NC(=O)[C@H](CC(=O)O)NC(C)=O)C(=O)N[C@@H](CC(C)C)C(=O)N[C@@H](CCC(N)=O)C(=O)N[C@@H](CCCCN)C(=O)N[C@H](C(=O)N[C@@H](Cc1ccc(O)cc1)C(=O)N[C@@H](CCC(=O)O)C(=O)N[C@H](C(=O)N[C@@H](CCSC)C(=O)N[C@@H](CCCNC(=N)N)C(=O)N[C@@H](CC(C)C)C(=O)N[C@@H](CC(C)C)C(=O)N[C@@H](CC(=O)O)C(=O)N[C@@H](CCC(=O)O)C(=O)N[C@@H](CC(C)C)C(=O)NCC(=O)NCCOCCOCCOCCOCCOCCOCCOCCOCCC(=O)NCCOCCOCCOCCOCCOCCOCCOCCOCCC(=O)N[C@@H](CC(=O)O)C(=O)N[C@H]1CSSC[C@@H](C(=O)N[C@H](C(N)=O)[C@@H](C)O)NC(=O)[C@H](Cc2c[nH]c3ccccc23)NC(=O)[C@H](C(C)C)NC(=O)[C@H](CC(C)C)NC(=O)[C@H](CCC(=O)O)NC(=O)CNC(=O)[C@H](CC(C)C)NC(=O)[C@H](Cc2c[nH]cn2)NC(=O)[C@H](Cc2c[nH]c3ccccc23)NC(=O)[C@H](C)NC1=O)[C@@H](C)CC)[C@@H](C)CC [Compound 151]	> 10 nM
CC[C@H](C)[C@H](NC(=O)[C@H](Cc1c[nH]c2ccccc12)NC(=O)[C@H](CCC(=O)O)NC(=O)[C@H](CCCCN)NC(=O)[C@H](CC(=O)O)NC(C)=O)C(=O)N[C@@H](CC(C)C)C(=O)N[C@@H](CCC(N)=O)C(=O)N[C@@H](CCCCN)C(=O)N[C@H](C(=O)N[C@@H](Cc1ccc(O)cc1)C(=O)N[C@@H](CCC(=O)O)C(=O)N[C@H](C(=O)N[C@@H](CCSC)C(=O)N[C@@H](CCCNC(=N)N)C(=O)N[C@@H](CC(C)C)C(=O)N[C@@H](CC(C)C)C(=O)N[C@@H](CC(=O)O)C(=O)N[C@@H](CCC(=O)O)C(=O)N[C@@H](CC(C)C)C(=O)NCC(=O)N[C@@H](Cc1c[nH]cn1)C(=O)N[C@@H](C)C(=O)N[C@@H](CCC(=O)O)C(=O)N[C@@H](C)C(=O)N[C@@H](CO)C(=O)NCCOCCOCCOCCOCCOCCOCCOCCOCCC(=O)NCCOCCOCCOCCOCCOCCOCCOCCOCCC(=O)N[C@@H](CC(=O)O)C(=O)N[C@H]1CSSC[C@@H](C(=O)N[C@H](C(N)=O)[C@@H](C)O)NC(=O)[C@H](Cc2c[nH]c3ccccc23)NC(=O)[C@H](C(C)C)NC(=O)[C@H](CC(C)C)NC(=O)[C@H](CCC(=O)O)NC(=O)CNC(=O)[C@H](CC(C)C)NC(=O)[C@H](Cc2c[nH]cn2)NC(=O)[C@H](Cc2c[nH]c3ccccc23)NC(=O)[C@H](C)NC1=O)[C@@H](C)CC)[C@@H](C)CC [Compound 152]	> 100 nM
CC[C@H](C)[C@H](NC(=O)[C@H](Cc1c[nH]c2ccccc12)NC(=O)[C@H](CCC(=O)O)NC(=O)[C@H](CCCCN)NC(=O)[C@H](CC(=O)O)NC(C)=O)C(=O)N[C@@H](CC(C)C)C(=O)N[C@@H](CCC(N)=O)C(=O)N[C@@H](CCCCN)C(=O)N[C@H](C(=O)N[C@@H](Cc1ccc(O)cc1)C(=O)N[C@@H](CCC(=O)O)C(=O)N[C@H](C(=O)N[C@@H](CCSC)C(=O)N[C@@H](CCCNC(=N)N)C(=O)N[C@@H](CC(C)C)C(=O)N[C@@H](CC(C)C)C(=O)N[C@@H](CC(=O)O)C(=O)N[C@@H](CCC(=O)O)C(=O)N[C@@H](CC(C)C)C(=O)NCC(=O)N[C@@H](Cc1c[nH]cn1)C(=O)N[C@@H](C)C(=O)N[C@@H](CCC(=O)O)C(=O)N[C@@H](C)C(=O)N[C@@H](CO)C(=O)N[C@@H](CCSC)C(=O)N[C@@H](CCCNC(=N)N)C(=O)N[C@H](C(=O)N[C@@H](CO)C(=O)NCCOCCOCCOCCOCCOCCOCCOCCOCCC(=O)NCCOCCOCCOCCOCCOCCOCCOCCOCCC(=O)N[C@@H](CC(=O)O)C(=O)N[C@H]1CSSC[C@@H](C(=O)N[C@H](C(N)=O)[C@@H](C)O)NC(=O)[C@H](Cc2c[nH]c3ccccc23)NC(=O)[C@H](C(C)C)NC(=O)[C@H](CC(C)C)NC(=O)[C@H](CCC(=O)O)NC(=O)CNC(=O)[C@H](CC(C)C)NC(=O)[C@H](Cc2c[nH]cn2)NC(=O)[C@H](Cc2c[nH]c3ccccc23)NC(=O)[C@H](C)NC1=O)C(C)C)[C@@H](C)CC)[C@@H](C)CC [Compound 153]	> 10 nM
CC[C@H](C)[C@H](NC(=O)[C@H](CC(C)C)NC(=O)[C@H](CC(=O)O)NC(=O)[C@H](CO)NC(=O)[C@@H](NC(=O)[C@H](CCCNC(=N)N)NC(=O)[C@H](CCSC)NC(=O)[C@H](CO)NC(=O)[C@H](C)NC(=O)[C@H](CCC(=O)O)NC(=O)[C@H](C)NC(=O)[C@H](Cc1c[nH]cn1)NC(=O)CNC(=O)[C@H](CC(C)C)NC(=O)[C@H](CCC(=O)O)NC(=O)[C@H](CC(=O)O)NC(=O)[C@H](CC(C)C)NC(=O)[C@H](CC(C)C)NC(=O)[C@H](CCCNC(=N)N)NC(=O)[C@H](CCSC)NC(=O)[C@@H](NC(=O)[C@H](CCC(=O)O)NC(=O)[C@H](Cc1ccc(O)cc1)NC(=O)[C@@H](NC(=O)[C@H](CCCCN)NC(=O)[C@H](CCC(N)=O)NC(=O)[C@H](CC(C)C)NC(=O)[C@@H](NC(=O)[C@H](Cc1c[nH]c2ccccc12)NC(=O)[C@H](CCC(=O)O)NC(=O)[C@H](CCCCN)NC(=O)[C@H](CC(=O)O)NC(C)=O)[C@@H](C)CC)[C@@H](C)CC)[C@@H](C)CC)C(C)C)C(=O)N[C@@H](Cc1ccc(O)cc1)C(=O)N[C@@H](CCC(=O)O)C(=O)NCCOCCOCCOCCOCCOCCOCCOCCOCCC(=O)NCCOCCOCCOCCOCCOCCOCCOCCOCCC(=O)N[C@@H](CC(=O)O)C(=O)N[C@H]1CSSC[C@@H](C(=O)N[C@H](C(N)=O)[C@@H](C)O)NC(=O)[C@H](Cc2c[nH]c3ccccc23)NC(=O)[C@H](C(C)C)NC(=O)[C@H](CC(C)C)NC(=O)[C@H](CCC(=O)O)NC(=O)CNC(=O)[C@H](CC(C)C)NC(=O)[C@H](Cc2c[nH]cn2)NC(=O)[C@H](Cc2c[nH]c3ccccc23)NC(=O)[C@H](C)NC1=O [Compound 154]	> 100 nM
CC[C@H](C)[C@H](NC(C)=O)C(=O)N[C@@H](Cc1ccc(O)cc1)C(=O)N[C@@H](CCC(=O)O)C(=O)N[C@H](C(=O)N[C@@H](CCSC)C(=O)N[C@@H](CCCNC(=N)N)C(=O)N[C@@H](CC(C)C)C(=O)N[C@@H](CC(C)C)C(=O)N[C@@H](CC(=O)O)C(=O)N[C@@H](CCC(=O)O)C(=O)N[C@@H](CC(C)C)C(=O)NCC(=O)N[C@@H](Cc1c[nH]cn1)C(=O)N[C@@H](C)C(=O)N[C@@H](CCC(=O)O)C(=O)N[C@@H](C)C(=O)N[C@@H](CO)C(=O)N[C@@H](CCSC)C(=O)N[C@@H](CCCNC(=N)N)C(=O)N[C@H](C(=O)N[C@@H](CO)C(=O)N[C@@H](CC(=O)O)C(=O)N[C@@H](CC(C)C)C(=O)N[C@H](C(=O)N[C@@H](Cc1ccc(O)cc1)C(=O)N[C@@H](CCC(=O)O)C(=O)N[C@@H](Cc1ccccc1)C(=O)N[C@@H](CCSC)C(=O)N[C@@H](CCCCN)C(=O)N[C@@H](CCCCN)C(=O)NCC(=O)NCCOCCOCCOCCOCCOCCOCCOCCOCCC(=O)NCCOCCOCCOCCOCCOCCOCCOCCOCCC(=O)N[C@@H](CC(=O)O)C(=O)N[C@H]1CSSC[C@@H](C(=O)N[C@H](C(N)=O)[C@@H](C)O)NC(=O)[C@H](Cc2c[nH]c3ccccc23)NC(=O)[C@H](C(C)C)NC(=O)[C@H](CC(C)C)NC(=O)[C@H](CCC(=O)O)NC(=O)CNC(=O)[C@H](CC(C)C)NC(=O)[C@H](Cc2c[nH]cn2)NC(=O)[C@H](Cc2c[nH]c3ccccc23)NC(=O)[C@H](C)NC1=O)[C@@H](C)CC)C(C)C)[C@@H](C)CC [Compound 156]	> 100 nM

molecular target: T1, SARS-CoV-2 Spike A (wild-type) (Severe acute respiratory syndrome coronavirus 2, UniProt P0DTC2); experiment: MSD ACE2 competition assay (inhibition of Spike binding with ACE2, ECL), A (wild-type); conditions: IC50 Wild Type, Wild Type Spike
T1 construct: purchased Meso Scale Diagnostics, LLC V-PLEX SARS-CoV-2 Panel 13 (ACE2) Kit / Panel 23 (ACE2) Kit

Molecule	IC50
{CH2CO}-ASYHLGELVW[Tic][Aib]C[dE]ILQKIYEIMRLLDELGHAEASMRVSDLIYEFMKK (thioether N-13) [Compound 131]	31.5 nM
